Laboratory results from US20120107323A1, “KINASE PROTEIN BINDING INHIBITORS” (University of Florida, priority 2009, published 2012).

Experiments:
[1] = system: Miapaca-2 orthotopic xenografts; assay: Orthotopic pancreatic xenograft, Miapaca-2; assay type: in vivo, mice
From the text: For the orthotopic model of pancreatic cancer, the University of Florida IACUC approved the following protocol (IACUC Study #2000801506). The pancreatic cancer cell lines, Mia paca-2 and Panc-1 cells were stably transfected using luciferase-RFP (red fluorescent protein) reporter gene for in vivo imaging of the xenografts. Following expansion and sorting of RFP positive cells, cells were expanded in culture and 5×10^6 tumor cells were implanted into the pancreas of 20 mice. For intra-pancreatic implantation of cells, mice were anesthetized with Isoflurane using the ACS provided and maintained rodent anesthesia machine. Under sterille surgical conditions, via 1.0 cm incision of the skin, abdominal wall and peritonium, the spleen was retracted and cells were injected in […] into the tail of the pancreas using a 29-gauge needle. The abdominal wall and peritoneum was sutured using 5.0 absorbable surgical sutures and the skin was closed with medical glue (dermabond). Postoperative analgesia was 0.05 mg/kg of buprenorphine subcutaneously per 8-12 hours postoperatively.
Mice were hand restrained prior to intraperitoneal injections. Mice were euthanized 6 weeks after tumor innoculation and tumor and tissue collected. As described below, mice were imaged weekly with the IVIS lumina imager and tumor size was estimated by the bioluminescent signal. […]

A375 subcutaneous tumor = assay: A375 melanoma xenograft in nude mice; assay type: in vivo; details: A375, 15 mg/kg daily intraperitoneal, 21 days, p<0.05
Experimental: Kinase Profiler Screening: Kinase specificity screening was performed with Invitrogen's SelectScreen® Kinase Profiling Services http://www.invitrogen.com/site/us/en/home/Products-and-Services/Services/Discoverv-Research/SelectScreen-Profiling-Service/SelectScreen-Kinase-Profiling-Service.html. The screening was performed with 1 μM compound, INT2-31, 10 μM ATP, and kinase substrates against ten recombinant kinases according to Z′-LYTET™ Kinase Assay. For PI3 kinase activity, 100 μM ATP, and kinase substrate were utilized with the Invitrogen Adapta® Universal Kinase Assay protocol. Tumor Growth in Nude Mice in vivo: Six week old athymic, female nude mice were purchased from Harlan Laboratory. The mice were maintained in the animal facility, and all experiments were performed in compliance with NIH animal-use guidelines and under an IACUC approved protocol. […] Tumor diameters were measured with calipers, and tumor volume in mm^3 was calculated using the formula [(width)^2×length]/2. At the end of experiment, tumor weight and volume were determined.
For the melanoma study, the University of Florida IACUC approved the following protocol (IACUC Study #200801077). […] Tumor diameters were measured with calipers, and tumor volume in mm^3 was calculated using the formula [(width)^2×length]/2. At the end of experiment, tumor weight and volume were determined.

[2] = system: TE7 esophageal cancer cells; assay: Cell viability (MTT), TE7; assay type: cell-based; details: TE7, 72 hours; read-out: IC50 of INT2-31, cell viability
Experimental: Cell viability (MTT) and CFSE Proliferation assay: Cells were plated in 96-well plates and let adhere overnight. After cell treatment, cell viability was measured by 3-(4,5-dimethylthiazol-2-yl)-2,5-diphenyl tetrazolium bromide (MTT) assay (CellTiter 96® Aqueous, Promega, Madison, Wis.).
Cell viability and detachment assays: After cells were treated with siRNA transfection, cell viability was measured by 3-(4,5-dimethylthiazol2-yl)-2,5-diphenyl tetrazolium bromide (MTT) assay (CellTiter 96® AQueous, Promega, Madison, Wis.). Briefly, 20 μl of the tetrazolium compound was added to each well. The cells were then incubated at 37° C. for 1 h. The plate was read at 490 nm with a plate reader to determine the viability. In detachment assays, detached and attached cells were harvested separately and counted in a hemocytometer. The percentage of detachment was calculated by dividing the number of detached cells by the total number of cells. Apoptosis assays: After treatment, attached and detached cells were collected, counted and prepared for terminal uridine deoxynucleotidyl transferase (TUNEL) assay by utilizing an APO-BRDU kit (BD Pharmingen, San Diego, Calif.) according to the manufacturer's instructions. Stained cells were analyzed with a fluorescence-activated cell sorting-Calibur flow cytometer (BD Biosciences). […] Apoptotic cells were also analyzed by Hoechst staining. […]

CSc1ncnc2c1ccn2C1O[C@H](COP(=O)(O)O)[C@@H](O)[C@H]1O (stereo partly drawn) [INT2-31, 4-(Methylthio)-7-(5-O-phosphono-D-ribofuranosyl)-{7H-Pyrrolo[2,3-d]pyrimidine}]
growth of the orthotopic pancreatic xenografts ([1]; Miapaca2, daily intraperitoneal 50 mg/kg, 21 days): sufficiently reduced the growth
side effects as measured by body weights and appearances of the animals ([1]; both orthotopic models): without any significant side effects
subcutaneous tumor growth compared to PBS control (A375 subcutaneous tumor): significant decrease
IC50 [2]: 3.2 µM
